Laboratory results as given in ChEMBL document CHEMBL4507272 (2021).

Assays:
Details in all cases: Compound concentration 10.0 uM
[1] = molecular target: 5-hydroxytryptamine receptor 1A (Homo sapiens) (UniProt P08908)
[2] = molecular target: 5-hydroxytryptamine receptor 1B (Homo sapiens) (UniProt P28222)
[3] = molecular target: 5-hydroxytryptamine receptor 2A (Homo sapiens) (UniProt P28223)
[4] = molecular target: 5-hydroxytryptamine receptor 2B (Homo sapiens) (UniProt P41595)
[5] = molecular target: 5-hydroxytryptamine receptor 2C (Homo sapiens) (UniProt P28335)
5-hydroxytryptamine receptor 2C (Homo sapiens), sequence (P28335 whole entry): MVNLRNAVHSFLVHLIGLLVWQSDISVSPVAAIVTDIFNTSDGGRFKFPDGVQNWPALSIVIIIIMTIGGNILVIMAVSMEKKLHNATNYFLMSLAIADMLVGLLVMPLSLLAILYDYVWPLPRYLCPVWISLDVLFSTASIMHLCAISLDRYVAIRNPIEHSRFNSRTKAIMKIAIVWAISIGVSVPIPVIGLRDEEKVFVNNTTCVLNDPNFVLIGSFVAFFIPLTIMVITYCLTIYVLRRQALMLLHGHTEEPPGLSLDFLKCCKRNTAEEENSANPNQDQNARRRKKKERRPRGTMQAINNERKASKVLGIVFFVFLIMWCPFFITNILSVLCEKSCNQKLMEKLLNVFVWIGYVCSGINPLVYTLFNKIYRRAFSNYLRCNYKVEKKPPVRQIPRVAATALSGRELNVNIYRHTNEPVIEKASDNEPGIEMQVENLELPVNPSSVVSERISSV

[6] = molecular target: 5-hydroxytryptamine receptor 3A (Homo sapiens) (UniProt P46098)
[7] = molecular target: 5-hydroxytryptamine receptor 5A (Homo sapiens) (UniProt P47898)
5-hydroxytryptamine receptor 5A (Homo sapiens), sequence (P47898 whole entry): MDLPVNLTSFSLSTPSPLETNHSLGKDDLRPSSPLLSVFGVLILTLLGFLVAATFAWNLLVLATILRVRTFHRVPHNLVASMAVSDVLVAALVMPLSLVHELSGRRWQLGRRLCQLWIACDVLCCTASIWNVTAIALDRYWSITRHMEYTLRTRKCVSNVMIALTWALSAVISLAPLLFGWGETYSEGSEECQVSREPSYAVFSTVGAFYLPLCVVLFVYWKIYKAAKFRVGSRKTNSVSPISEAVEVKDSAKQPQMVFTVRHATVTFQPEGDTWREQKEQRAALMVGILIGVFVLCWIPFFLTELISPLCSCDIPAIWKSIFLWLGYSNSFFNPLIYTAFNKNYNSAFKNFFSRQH

[8] = molecular target: 5-hydroxytryptamine receptor 6 (Homo sapiens) (UniProt P50406)
[9] = molecular target: 5-hydroxytryptamine receptor 7 (Homo sapiens) (UniProt P34969)
[10] = molecular target: D(2) dopamine receptor (Homo sapiens) (UniProt P14416)
[11] = molecular target: D(3) dopamine receptor (Homo sapiens) (UniProt P35462)
[12] = molecular target: D(4) dopamine receptor (Homo sapiens) (UniProt P21917)
[13] = molecular target: D(1B) dopamine receptor (Homo sapiens) (UniProt P21918)
[14] = molecular target: Sodium-dependent serotonin transporter (Homo sapiens) (UniProt P31645)
Sodium-dependent serotonin transporter (Homo sapiens), sequence (P31645 whole entry, looked up): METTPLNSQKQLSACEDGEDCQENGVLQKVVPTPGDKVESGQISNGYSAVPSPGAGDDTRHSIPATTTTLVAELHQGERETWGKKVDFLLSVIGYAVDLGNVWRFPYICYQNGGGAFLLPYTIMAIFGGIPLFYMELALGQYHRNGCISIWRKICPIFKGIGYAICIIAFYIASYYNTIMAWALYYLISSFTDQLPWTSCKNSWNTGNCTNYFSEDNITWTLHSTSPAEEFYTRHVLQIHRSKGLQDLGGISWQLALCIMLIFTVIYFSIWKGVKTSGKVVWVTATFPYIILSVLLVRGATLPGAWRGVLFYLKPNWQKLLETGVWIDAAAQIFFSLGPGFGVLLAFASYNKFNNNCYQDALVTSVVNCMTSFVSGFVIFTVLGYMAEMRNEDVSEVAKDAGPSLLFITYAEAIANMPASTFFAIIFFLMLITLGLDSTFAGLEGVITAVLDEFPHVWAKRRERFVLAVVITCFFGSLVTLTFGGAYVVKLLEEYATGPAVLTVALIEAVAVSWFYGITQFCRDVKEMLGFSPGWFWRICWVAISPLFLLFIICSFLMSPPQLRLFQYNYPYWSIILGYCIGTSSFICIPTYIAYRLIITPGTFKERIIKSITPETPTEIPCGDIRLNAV

[15] = molecular target: Sodium-dependent noradrenaline transporter (Homo sapiens) (UniProt P23975)
[16] = molecular target: Sodium-dependent dopamine transporter (Homo sapiens) (UniProt Q01959)
Sodium-dependent dopamine transporter (Homo sapiens), sequence (Q01959 whole entry): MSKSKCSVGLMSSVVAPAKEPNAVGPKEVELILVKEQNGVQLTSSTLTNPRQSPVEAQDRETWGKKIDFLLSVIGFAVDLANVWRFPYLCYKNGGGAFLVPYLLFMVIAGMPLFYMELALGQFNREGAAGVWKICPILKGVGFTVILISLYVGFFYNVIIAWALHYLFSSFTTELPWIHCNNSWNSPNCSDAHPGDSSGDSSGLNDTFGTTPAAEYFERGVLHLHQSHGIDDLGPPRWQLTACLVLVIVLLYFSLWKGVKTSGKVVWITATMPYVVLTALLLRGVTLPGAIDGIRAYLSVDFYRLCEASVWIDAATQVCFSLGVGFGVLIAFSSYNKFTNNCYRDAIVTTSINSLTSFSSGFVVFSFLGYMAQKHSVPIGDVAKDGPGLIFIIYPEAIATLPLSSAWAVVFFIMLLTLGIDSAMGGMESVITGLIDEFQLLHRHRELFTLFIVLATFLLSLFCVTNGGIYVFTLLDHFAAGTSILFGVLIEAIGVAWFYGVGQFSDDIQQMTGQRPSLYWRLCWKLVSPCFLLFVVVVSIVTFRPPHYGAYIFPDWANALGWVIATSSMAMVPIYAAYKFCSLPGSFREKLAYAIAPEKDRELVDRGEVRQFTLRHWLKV

[17] = molecular target: Mu-type opioid receptor (Homo sapiens) (UniProt P35372)
[18] = molecular target: Delta-type opioid receptor (Homo sapiens) (UniProt P41143)
Delta-type opioid receptor (Homo sapiens), sequence (P41143 whole entry): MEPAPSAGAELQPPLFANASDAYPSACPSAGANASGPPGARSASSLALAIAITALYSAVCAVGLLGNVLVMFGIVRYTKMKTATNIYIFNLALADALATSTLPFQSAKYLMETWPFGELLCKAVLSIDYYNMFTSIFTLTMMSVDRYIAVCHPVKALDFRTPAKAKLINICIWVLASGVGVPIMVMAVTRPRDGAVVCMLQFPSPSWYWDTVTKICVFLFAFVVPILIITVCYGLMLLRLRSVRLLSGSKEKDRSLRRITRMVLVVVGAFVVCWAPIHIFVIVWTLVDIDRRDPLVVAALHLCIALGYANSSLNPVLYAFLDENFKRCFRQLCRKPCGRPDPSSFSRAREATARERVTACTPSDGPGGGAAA

[19] = molecular target: Kappa-type opioid receptor (Homo sapiens) (UniProt P41145)
[20] = molecular target: T1, GABA-A receptor; anion channel (Rattus norvegicus) (UniProt O09028+P15431+P18506+P18508+P19969+P20236+P23574+P23576+P28471+P28473+P30191+P62813+P63079+P63138+Q91ZM7+Q9ES14)
[21] = molecular target: Histamine H1 receptor (Homo sapiens) (UniProt P35367)
[22] = molecular target: Histamine H2 receptor (Homo sapiens) (UniProt P25021)
[23] = molecular target: Histamine H4 receptor (Homo sapiens) (UniProt Q9H3N8)
[24] = molecular target: Alpha-1A adrenergic receptor (Homo sapiens) (UniProt P35348)
[25] = molecular target: Alpha-1B adrenergic receptor (Homo sapiens) (UniProt P35368)
[26] = molecular target: Alpha-2A adrenergic receptor (Homo sapiens) (UniProt P08913)
[27] = molecular target: Alpha-2B adrenergic receptor (Homo sapiens) (UniProt P18089)
[28] = molecular target: Alpha-2C adrenergic receptor (Homo sapiens) (UniProt P18825)
Alpha-2C adrenergic receptor (Homo sapiens), sequence (P18825 whole entry): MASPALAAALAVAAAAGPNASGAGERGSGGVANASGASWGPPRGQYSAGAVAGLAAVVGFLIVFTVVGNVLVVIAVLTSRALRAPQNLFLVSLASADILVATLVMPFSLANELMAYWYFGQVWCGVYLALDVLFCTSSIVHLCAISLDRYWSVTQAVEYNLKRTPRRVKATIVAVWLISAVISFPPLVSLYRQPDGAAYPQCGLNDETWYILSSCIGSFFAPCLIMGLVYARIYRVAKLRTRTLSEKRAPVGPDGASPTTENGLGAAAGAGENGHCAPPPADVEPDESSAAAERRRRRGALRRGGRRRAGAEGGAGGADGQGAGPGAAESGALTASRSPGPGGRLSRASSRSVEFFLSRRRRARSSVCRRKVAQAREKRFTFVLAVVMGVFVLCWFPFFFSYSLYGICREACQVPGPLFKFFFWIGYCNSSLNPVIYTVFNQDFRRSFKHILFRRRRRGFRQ

[29] = molecular target: Beta-1 adrenergic receptor (Homo sapiens, UniProt P08588)
Beta-1 adrenergic receptor, sequence (P08588 whole entry, looked up): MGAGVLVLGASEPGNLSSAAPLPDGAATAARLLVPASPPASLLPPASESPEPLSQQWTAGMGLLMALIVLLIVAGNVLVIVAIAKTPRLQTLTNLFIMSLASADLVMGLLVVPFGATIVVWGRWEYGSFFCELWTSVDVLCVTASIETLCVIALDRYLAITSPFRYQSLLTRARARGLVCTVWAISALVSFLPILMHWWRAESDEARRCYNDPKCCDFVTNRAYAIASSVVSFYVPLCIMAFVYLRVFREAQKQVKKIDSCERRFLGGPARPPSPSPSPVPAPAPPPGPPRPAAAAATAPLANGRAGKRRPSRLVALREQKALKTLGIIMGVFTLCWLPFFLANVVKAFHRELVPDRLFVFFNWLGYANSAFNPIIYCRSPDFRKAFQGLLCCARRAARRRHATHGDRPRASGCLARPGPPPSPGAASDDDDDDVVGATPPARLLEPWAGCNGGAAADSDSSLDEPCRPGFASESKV

[30] = molecular target: Beta-2 adrenergic receptor (Homo sapiens) (UniProt P07550)
Beta-2 adrenergic receptor (Homo sapiens), sequence (P07550 whole entry, looked up): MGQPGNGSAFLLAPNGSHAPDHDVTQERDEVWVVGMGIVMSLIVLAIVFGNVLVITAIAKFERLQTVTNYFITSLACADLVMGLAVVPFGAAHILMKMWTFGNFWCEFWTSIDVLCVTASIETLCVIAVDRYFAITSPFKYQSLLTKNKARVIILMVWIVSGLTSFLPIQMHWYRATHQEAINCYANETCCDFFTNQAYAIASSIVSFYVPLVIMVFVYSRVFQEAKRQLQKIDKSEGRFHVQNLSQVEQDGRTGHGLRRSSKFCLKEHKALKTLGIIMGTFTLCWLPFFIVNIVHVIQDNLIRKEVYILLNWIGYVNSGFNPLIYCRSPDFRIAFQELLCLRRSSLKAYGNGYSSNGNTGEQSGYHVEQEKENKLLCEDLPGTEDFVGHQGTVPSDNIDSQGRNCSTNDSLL

[31] = molecular target: Muscarinic acetylcholine receptor M2 (Homo sapiens) (UniProt P08172)
[32] = molecular target: Muscarinic acetylcholine receptor M3 (Homo sapiens) (UniProt P20309)
[33] = molecular target: Muscarinic acetylcholine receptor M4 (Homo sapiens) (UniProt P08173)
Muscarinic acetylcholine receptor M4 (Homo sapiens), sequence (P08173 whole entry): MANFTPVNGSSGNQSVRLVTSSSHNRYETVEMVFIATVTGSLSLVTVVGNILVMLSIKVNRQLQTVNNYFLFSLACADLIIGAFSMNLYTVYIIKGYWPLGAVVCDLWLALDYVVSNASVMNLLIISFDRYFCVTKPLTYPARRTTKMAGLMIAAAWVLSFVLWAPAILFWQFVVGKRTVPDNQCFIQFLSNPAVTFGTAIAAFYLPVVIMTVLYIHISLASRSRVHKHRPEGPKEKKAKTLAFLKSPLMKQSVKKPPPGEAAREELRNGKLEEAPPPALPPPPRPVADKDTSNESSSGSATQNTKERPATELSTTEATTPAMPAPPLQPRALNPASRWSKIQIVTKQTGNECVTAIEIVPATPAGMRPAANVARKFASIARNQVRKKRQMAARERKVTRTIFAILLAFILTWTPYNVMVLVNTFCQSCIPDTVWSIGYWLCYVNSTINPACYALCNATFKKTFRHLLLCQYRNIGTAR

[34] = molecular target: Muscarinic acetylcholine receptor M5 (Homo sapiens) (UniProt P08912)
[35] = molecular target: Beta-3 adrenergic receptor (Homo sapiens) (UniProt P13945)
[36] = molecular target: T1, GABA-A receptor; anion channel (Rattus norvegicus); remark: listed apart in the source
[37] = molecular target: Alpha-1D adrenergic receptor (Homo sapiens) (UniProt P25100)
[38] = molecular target: Sigma intracellular receptor 2 (Homo sapiens) (UniProt Q5BJF2)
Sigma intracellular receptor 2 (Homo sapiens), sequence (Q5BJF2 whole entry): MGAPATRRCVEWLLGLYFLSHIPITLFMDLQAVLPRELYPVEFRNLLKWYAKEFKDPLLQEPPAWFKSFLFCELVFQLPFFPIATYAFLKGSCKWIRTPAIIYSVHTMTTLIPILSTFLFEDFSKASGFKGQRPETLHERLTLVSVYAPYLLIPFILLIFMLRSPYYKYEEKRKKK

Measured: inhibition

5-hydroxytryptamine receptor 2A (Homo sapiens), sequence (P28223 whole entry): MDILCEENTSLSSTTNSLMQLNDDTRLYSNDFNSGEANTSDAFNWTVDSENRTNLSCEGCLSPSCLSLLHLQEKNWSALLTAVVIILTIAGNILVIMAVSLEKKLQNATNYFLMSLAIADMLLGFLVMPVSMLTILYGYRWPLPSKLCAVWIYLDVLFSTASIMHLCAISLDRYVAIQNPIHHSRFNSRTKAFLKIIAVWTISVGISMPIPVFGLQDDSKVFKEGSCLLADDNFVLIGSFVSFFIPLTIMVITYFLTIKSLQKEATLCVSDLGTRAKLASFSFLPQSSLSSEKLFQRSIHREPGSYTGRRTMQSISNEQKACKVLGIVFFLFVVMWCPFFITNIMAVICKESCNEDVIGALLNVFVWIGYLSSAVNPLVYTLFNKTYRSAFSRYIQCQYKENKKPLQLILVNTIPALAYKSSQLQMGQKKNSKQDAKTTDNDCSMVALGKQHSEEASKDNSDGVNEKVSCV

CC(=O)C1=C(C)N(c2cccc(C(F)(F)F)c2)C(=O)N[C@H]1c1ccc(C#N)nc1
inactive: [1] 3.63% | [2] 6.75% | [3] -6.25% | [4] 15.8% | [5] 29% | [6] 23.7% | [7] 8.86% | [8] 14.9% | [9] 13.9% | [10] -1.53% | [11] -6.43% | [12] 5.84% | [13] 5.12% | [14] 2.85% | [15] -8.06% | [16] 1.88% | [17] 2.02% | [18] 4.95% | [19] -8.67% | [20] -5.84% | [21] 5.28% | [22] 3.4% | [23] -0.78% | [24] -5.26% | [25] -8.1% | [26] -8.89% | [27] 11.8% | [28] 11% | [29] 8.09% | [30] 21.6% | [31] -9.21% | [32] 27.3% | [33] 2.88% | [34] 2.19% | [35] 17.2% | [36] 14.7% | [37] 7.7% | [38] 20.9%
